Experimental data as given in patent publication US10588317B2, “Isoxazoline-substituted benzamides and analogues as insecticides” (priority 2015, dated 2020).
Where two headings read alike, the source gives them in different places.

Tests used:
Assay type in all cases: in vivo
Spodoptera littoralis = Spodoptera littoralis (Egyptian cotton leaf worm), sprayed cotton leaf discs; conditions: foliar, 72 h, read-out: control (mortality, anti-feeding effect, growth inhibition)
In short: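 Cotton leaf discs on agar sprayed with aqueous test solutions made from 10'000 ppm DMSO stock; after drying, infested with five L1 larvae. Mortality, anti-feeding and growth inhibition scored versus untreated samples 3 days after infestation; control counted when any category exceeds untreated.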

Plutella xylostella = Plutella xylostella (diamond back moth), artificial diet; conditions: 120 h, read-out: effect in at least one of the two categories (mortality or growth inhibition); for percent effect (mortality or growth inhibition) at 200 ppm: application rate 200 ppm, L2 larvae, 5 days after infestation
In short: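 Artificial diet in 24-well plates treated with aqueous test solutions made from 10'000 ppm DMSO stocks, dried, then infested with L2 larvae (10 to 15 per well). Mortality and growth inhibition scored against untreated samples 5 days after infestation; activity cut-off at least 80% in either category at 200 ppm.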

Diabrotica balteata = Diabrotica balteata (corn root worm), sprayed maize sprouts; conditions: 96 h, read-out: effect in at least one of the two categories (mortality or growth inhibition); for percent effect (mortality or growth inhibition) at 200 ppm: application rate 200 ppm, L2 larvae, 4 days after infestation
In short: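 Maize sprouts on agar sprayed with aqueous dilutions of DMSO stocks, dried, then infested with L2 larvae (6–10 per well). Mortality and growth inhibition scored against untreated controls 4 days after infestation, at 200 ppm application rate.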

Tetranychus urticae = Tetranychus urticae (two-spotted spider mite): feeding/contact activity; conditions: 192 h
Method: Bean leaf discs on agar in 24-well microtiter plates were sprayed with aqueous test solutions prepared from 10'000 ppm DMSO stock solutions. After drying the leaf discs were infested with a mite population of mixed ages. The samples were assessed for mortality on mixed population (mobile stages) 8 days after infestation.

Euschistus heros = Euschistus heros (neotropical brown stink bug), sprayed soybean leaves; conditions: 120 h, read-out: effect in at least one of the two categories (mortality or growth inhibition); for percent effect (mortality or growth inhibition) at 200 ppm: application rate 200 ppm, N2 nymphs, 5 days after infestation
In short: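 Soybean leaves on agar sprayed with aqueous dilutions of DMSO stocks, dried, then infested with N2 nymphs. Mortality and growth inhibition scored against untreated samples 5 days after infestation; application rate 200 ppm.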

Thrips tabaci = Thrips tabaci (onion thrips): feeding/contact activity; conditions: 144 h
Method: Sunflower leaf discs were placed on agar in 24-well microtiter plates and sprayed with aqueous test solutions prepared from 10'000 ppm DMSO stock solutions. After drying the leaf discs were infested with a Thrips population of mixed ages. The samples were assessed for mortality 6 days after infestation.

Myzus persicae = Myzus persicae (green peach aphid): feeding/contact activity; conditions: 144 h
Method: Sunflower leaf discs were placed onto agar in a 24-well microtiter plate and sprayed with aqueous test solutions prepared from 10'000 ppm DMSO stock solutions. After drying, the leaf discs were infested with an aphid population of mixed ages. The samples were assessed for mortality 6 days after infestation.

[1] = application rate 200 ppm, L1 larvae, 3 days after infestation
[2] = application rate 200 ppm, mixed population (mobile stages), 8 days after infestation, read-out: mortality
[3] = application rate 200 ppm, Thrips population of mixed ages, 6 days after infestation, read-out: mortality
[4] = application rate 200 ppm, aphid population of mixed ages, 6 days after infestation, read-out: mortality

Cc1cc(C2=NO[C@@](c3cc(Cl)cc(Cl)c3)(C(F)(F)F)C2)ccc1C(=O)N[C@@H]1CON(S(=O)(=O)CF)C1 [Compound A210]
≥ 80%: mortality at 200 ppm (Spodoptera littoralis; [1]) | percent effect (mortality or growth inhibition) at 200 ppm (Plutella xylostella) | percent effect (mortality or growth inhibition) at 200 ppm (Diabrotica balteata) | mortality at 200 ppm (Tetranychus urticae; [2]) | percent effect (mortality or growth inhibition) at 200 ppm (Euschistus heros) | mortality at 200 ppm (Thrips tabaci; [3]) | mortality at 200 ppm (Myzus persicae; [4])

Cc1cc(C2=NO[C@](c3cc(Cl)cc(C(F)F)c3)(C(F)(F)F)C2)ccc1C(=O)N[C@H]1CON(S(=O)(=O)N(C)C)C1 [Compound A186]
≥ 80%: mortality at 200 ppm (Spodoptera littoralis; [1]) | percent effect (mortality or growth inhibition) at 200 ppm (Plutella xylostella) | percent effect (mortality or growth inhibition) at 200 ppm (Diabrotica balteata) | mortality at 200 ppm (Tetranychus urticae; [2]) | percent effect (mortality or growth inhibition) at 200 ppm (Euschistus heros) | mortality at 200 ppm (Thrips tabaci; [3]) | mortality at 200 ppm (Myzus persicae; [4])

CS(=O)(=O)N1CC(NC(=O)c2ccc(C3=NO[C@@](c4cc(Cl)c(Cl)c(Cl)c4)(C(F)(F)F)C3)cc2Cl)CO1 (stereo partly drawn) [Compound A15, 2-chloro-N-(2-methylsulfonylisoxazolidin-4-yl)-4-[(5S)-5-(3,4,5-trichlorophenyl)-5-(trifluoromethyl)-4H-isoxazol-3-yl]benzamide]
≥ 80%: mortality at 200 ppm (Spodoptera littoralis; [1]) | percent effect (mortality or growth inhibition) at 200 ppm (Plutella xylostella) | percent effect (mortality or growth inhibition) at 200 ppm (Diabrotica balteata) | mortality at 200 ppm (Tetranychus urticae; [2]) | percent effect (mortality or growth inhibition) at 200 ppm (Euschistus heros) | mortality at 200 ppm (Thrips tabaci; [3]) | mortality at 200 ppm (Myzus persicae; [4])

COC(=O)N(C)S(=O)(=O)N1CC(NC(=O)c2ccc(C3=NO[C@@](c4cc(Cl)c(F)c(Cl)c4)(C(F)(F)F)C3)cc2C)CO1 (stereo partly drawn) [Compound A77, methyl N-[4-[[4-[(5S)-5-(3,5-dichloro-4-fluoro-phenyl)-5-(trifluoromethyl)-4H-isoxazol-3-yl]-2-methyl-benzoyl]amino]isoxazolidin-2-yl]sulfonyl-N-methyl-carbamate]
≥ 80%: mortality at 200 ppm (Spodoptera littoralis; [1]) | percent effect (mortality or growth inhibition) at 200 ppm (Plutella xylostella) | percent effect (mortality or growth inhibition) at 200 ppm (Diabrotica balteata) | mortality at 200 ppm (Tetranychus urticae; [2]) | percent effect (mortality or growth inhibition) at 200 ppm (Euschistus heros) | mortality at 200 ppm (Thrips tabaci; [3]) | mortality at 200 ppm (Myzus persicae; [4])

COCN(C)S(=O)(=O)N1CC(NC(=O)c2ccc(C3=NO[C@@](c4cc(Cl)c(Cl)c(Cl)c4)(C(F)(F)F)C3)cc2C)CO1 (some centres unmarked) [Compound A96]
≥ 80%: mortality at 200 ppm (Spodoptera littoralis; [1]) | percent effect (mortality or growth inhibition) at 200 ppm (Plutella xylostella) | percent effect (mortality or growth inhibition) at 200 ppm (Diabrotica balteata) | mortality at 200 ppm (Tetranychus urticae; [2]) | percent effect (mortality or growth inhibition) at 200 ppm (Euschistus heros) | mortality at 200 ppm (Thrips tabaci; [3]) | mortality at 200 ppm (Myzus persicae; [4])

Cc1cc(C2=NO[C@@](c3cc(Cl)cc(Cl)c3)(C(F)(F)F)C2)ccc1C(=O)N[C@H]1CON(S(=O)(=O)F)C1 [Compound A198, (4R)-4-[[4-[(5S)-5-(3,5-dichlorophenyl)-5-(trifluoromethyl)-4H-isoxazol-3-yl]-2-methyl-benzoyl]amino]isoxazolidine-2-sulfonyl fluoride]
≥ 80%: mortality at 200 ppm (Spodoptera littoralis) | percent control (mortality or growth inhibition) at 200 ppm (Plutella xylostella) | percent control (mortality or growth inhibition) at 200 ppm (Diabrotica balteata) | mortality at 200 ppm (Tetranychus urticae) | percent control (mortality or growth inhibition) at 200 ppm (Euschistus heros) | mortality at 200 ppm (Thrips tabaci) | mortality at 200 ppm (Myzus persicae)

CCN(C(=O)OC(C)(C)C)S(=O)(=O)N1CC(NC(=O)c2ccc(C3=NO[C@@](c4cc(Cl)c(F)c(Cl)c4)(C(F)(F)F)C3)cc2C)CO1 (stereo partly drawn) [Compound A93, tert-butyl N-[4-[[4-[(5S)-5-(3,5-dichloro-4-fluoro-phenyl)-5-(trifluoromethyl)-4H-isoxazol-3-yl]-2-methyl-benzoyl]amino]isoxazolidin-2-yl]sulfonyl-N-ethyl-carbamate]
≥ 80%: mortality at 200 ppm (Spodoptera littoralis; [1]) | percent effect (mortality or growth inhibition) at 200 ppm (Plutella xylostella) | percent effect (mortality or growth inhibition) at 200 ppm (Diabrotica balteata) | mortality at 200 ppm (Tetranychus urticae; [2]) | percent effect (mortality or growth inhibition) at 200 ppm (Euschistus heros) | mortality at 200 ppm (Thrips tabaci; [3]) | mortality at 200 ppm (Myzus persicae; [4])

Cc1cc(C2=NO[C@](c3cc(Cl)cc(C(F)F)c3)(C(F)(F)F)C2)ccc1C(=O)N[C@H]1CON(S(C)(=O)=O)C1 [Compound A185]
≥ 80%: mortality at 200 ppm (Spodoptera littoralis; [1]) | percent effect (mortality or growth inhibition) at 200 ppm (Plutella xylostella) | percent effect (mortality or growth inhibition) at 200 ppm (Diabrotica balteata) | mortality at 200 ppm (Tetranychus urticae; [2]) | percent effect (mortality or growth inhibition) at 200 ppm (Euschistus heros) | mortality at 200 ppm (Thrips tabaci; [3]) | mortality at 200 ppm (Myzus persicae; [4])

Cc1cc(C2=NO[C@@](c3cc(Cl)c(F)c(Cl)c3)(C(F)(F)F)C2)ccc1C(=O)N[C@@H]1CON(S(=O)(=O)N(C)C2(C#N)CC2)C1 [Compound A187]
≥ 80%: mortality at 200 ppm (Spodoptera littoralis; [1]) | percent effect (mortality or growth inhibition) at 200 ppm (Plutella xylostella) | percent effect (mortality or growth inhibition) at 200 ppm (Diabrotica balteata) | mortality at 200 ppm (Tetranychus urticae; [2]) | percent effect (mortality or growth inhibition) at 200 ppm (Euschistus heros) | mortality at 200 ppm (Thrips tabaci; [3]) | mortality at 200 ppm (Myzus persicae; [4])

Cc1cc(C2=NO[C@](c3cc(Cl)cc(C(F)(F)F)c3)(C(F)(F)F)C2)ccc1C(=O)N[C@H]1CON(S(=O)(=O)CF)C1 [Compound A218]
≥ 80%: mortality at 200 ppm (Spodoptera littoralis; [1]) | percent effect (mortality or growth inhibition) at 200 ppm (Plutella xylostella) | percent effect (mortality or growth inhibition) at 200 ppm (Diabrotica balteata) | mortality at 200 ppm (Tetranychus urticae; [2]) | percent effect (mortality or growth inhibition) at 200 ppm (Euschistus heros) | mortality at 200 ppm (Thrips tabaci; [3]) | mortality at 200 ppm (Myzus persicae; [4])

Cc1cc(C2=NO[C@@](c3cc(Cl)c(Cl)c(Cl)c3)(C(F)(F)F)C2)ccc1C(=O)NC1CON(S(=O)(=O)N(C)Cc2ccccc2)C1 (stereo partly drawn) [Compound A86, N-[2-[benzyl(methyl)sulfamoyl]isoxazolidin-4-yl]-2-methyl-4-[(5S)-5-(3,4,5-trichlorophenyl)-5-(trifluoromethyl)-4H-isoxazol-3-yl]benzamide]
≥ 80%: mortality at 200 ppm (Spodoptera littoralis; [1]) | percent effect (mortality or growth inhibition) at 200 ppm (Plutella xylostella) | percent effect (mortality or growth inhibition) at 200 ppm (Diabrotica balteata) | mortality at 200 ppm (Tetranychus urticae; [2]) | percent effect (mortality or growth inhibition) at 200 ppm (Euschistus heros) | mortality at 200 ppm (Thrips tabaci; [3]) | mortality at 200 ppm (Myzus persicae; [4])

Cc1cc(C2=NO[C@@](c3cc(Cl)c(Cl)c(Cl)c3)(C(F)(F)F)C2)ccc1C(=O)NC1CON(S(=O)(=O)N(C)C(C)C)C1 (stereo partly drawn) [Compound A103, N-[2-[isopropyl(methyl)sulfamoyl]isoxazolidin-4-yl]-2-methyl-4-[(5S)-5-(3,4,5-trichlorophenyl)-5-(trifluoromethyl)-4H-isoxazol-3-yl]benzamide]
≥ 80%: mortality at 200 ppm (Spodoptera littoralis; [1]) | percent effect (mortality or growth inhibition) at 200 ppm (Plutella xylostella) | percent effect (mortality or growth inhibition) at 200 ppm (Diabrotica balteata) | mortality at 200 ppm (Tetranychus urticae; [2]) | percent effect (mortality or growth inhibition) at 200 ppm (Euschistus heros) | mortality at 200 ppm (Thrips tabaci; [3]) | mortality at 200 ppm (Myzus persicae; [4])

Cc1cc(C2=NO[C@@](c3cc(Cl)c(OC(F)F)c(Cl)c3)(C(F)(F)F)C2)ccc1C(=O)N[C@@H]1CON(S(C)(=O)=O)C1 [Compound A204, 4-[(5S)-5-[3,5-dichloro-4-(difluoromethoxy)phenyl]-5-(trifluoromethyl)-4H-1,2-oxazol-3-yl]-2-methyl-N-[(4S)-2-methylsulfonyl-1,2-oxazolidin-4-yl]benzamide]
≥ 80%: mortality at 200 ppm (Spodoptera littoralis; [1]) | percent effect (mortality or growth inhibition) at 200 ppm (Plutella xylostella) | percent effect (mortality or growth inhibition) at 200 ppm (Diabrotica balteata) | mortality at 200 ppm (Tetranychus urticae; [2]) | percent effect (mortality or growth inhibition) at 200 ppm (Euschistus heros) | mortality at 200 ppm (Thrips tabaci; [3]) | mortality at 200 ppm (Myzus persicae; [4])

Cc1cc(C2=NO[C@](c3cc(Cl)c(F)c(Cl)c3)(C(F)(F)F)C2)ccc1C(=O)N[C@@H]1CON(S(=O)(=O)C(F)(F)F)C1 [Compound A223, 4-[(5R)-5-(3,5-dichloro-4-fluorophenyl)-5-(trifluoromethyl)-4H-1,2-oxazol-3-yl]-2-methyl-N-[(4S)-2-(trifluoromethylsulfonyl)-1,2-oxazolidin-4-yl]benzamide]
≥ 80%: mortality at 200 ppm (Spodoptera littoralis; [1]) | percent effect (mortality or growth inhibition) at 200 ppm (Plutella xylostella) | percent effect (mortality or growth inhibition) at 200 ppm (Diabrotica balteata) | mortality at 200 ppm (Tetranychus urticae; [2]) | percent effect (mortality or growth inhibition) at 200 ppm (Euschistus heros) | mortality at 200 ppm (Thrips tabaci; [3]) | mortality at 200 ppm (Myzus persicae; [4])
